{
  "source": "the supplement of paper PMC10307832",
  "experiment_in_all_cases": "relative viability (nuclei count vs DMSO), 5 days (fraction); higher = more cells survive",
  "key": {"Dabrafenib + Palbociclib": {"compound": "CC(C)(C)c1nc(-c2cccc(NS(=O)(=O)c3c(F)cccc3F)c2F)c(-c2ccnc(N)n2)s1 [Dabrafenib] + CC(=O)c1c(C)c2cnc(Nc3ccc(N4CCNCC4)cn3)nc2n(C2CCCC2)c1=O [Palbociclib] (partner 0.5 µM)", "outline": "(§1)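 Lung cancer cell lines, seeded in 1536-well plates, were treated the following day by pin tool with a single drug or with five library-drug doses (not always all listed) in √10 steps on top of a fixed anchor-drug dose. Cells were fixed and nuclei stained in one step after 5 days, and nuclei were counted. Relative viability is the nuclei count for treated wells divided by that for vehicle wells, reported as medians of duplicate plates.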"}, "Dabrafenib + Foretinib": {"compound": "CC(C)(C)c1nc(-c2cccc(NS(=O)(=O)c3c(F)cccc3F)c2F)c(-c2ccnc(N)n2)s1 [Dabrafenib] + COc1cc2c(Oc3ccc(NC(=O)C4(C(=O)Nc5ccc(F)cc5)CC4)cc3F)ccnc2cc1OCCCN1CCOCC1 [Foretinib] (partner 0.25 µM)", "outline": "as §1"}, "Dabrafenib + Decitabine": {"compound": "CC(C)(C)c1nc(-c2cccc(NS(=O)(=O)c3c(F)cccc3F)c2F)c(-c2ccnc(N)n2)s1 [Dabrafenib] + Nc1ncn([C@H]2C[C@H](O)[C@@H](CO)O2)c(=O)n1 [Decitabine] (partner 2 µM)", "outline": "as §1"}, "VX-702 + Tozasertib": {"compound": "NC(=O)c1ccc(N(C(N)=O)c2c(F)cccc2F)nc1-c1ccc(F)cc1F [VX-702] + Cc1cc(Nc2cc(N3CCN(C)CC3)nc(Sc3ccc(NC(=O)C4CC4)cc3)n2)n[nH]1 [Tozasertib] (partner 0.1 µM)", "outline": "as §1"}, "VX-702 + Decitabine": {"compound": "NC(=O)c1ccc(N(C(N)=O)c2c(F)cccc2F)nc1-c1ccc(F)cc1F [VX-702] + Nc1ncn([C@H]2C[C@H](O)[C@@H](CO)O2)c(=O)n1 [Decitabine] (partner 2 µM)", "outline": "as §1"}},
  "data": [
    {"cell line": "SW 900", "values": [
      {"measurement": "relative viability", "setting": "Dabrafenib + Palbociclib; first compound 0.009487 µM", "result": 0.532},
      {"measurement": "relative viability", "setting": "Dabrafenib + Palbociclib; first compound 0.09487 µM", "result": 0.523},
      {"measurement": "relative viability", "setting": "Dabrafenib + Palbociclib; first compound 0.3 µM", "result": 0.58},
      {"measurement": "relative viability", "setting": "Dabrafenib + Foretinib; first compound 0.009487 µM", "result": 0.905},
      {"measurement": "relative viability", "setting": "Dabrafenib + Foretinib; first compound 0.03 µM", "result": 0.788},
      {"measurement": "relative viability", "setting": "Dabrafenib + Foretinib; first compound 0.3 µM", "result": 0.856},
      {"measurement": "relative viability", "setting": "Dabrafenib + Decitabine; first compound 0.009487 µM", "result": 0.35},
      {"measurement": "relative viability", "setting": "Dabrafenib + Decitabine; first compound 0.09487 µM", "result": 0.486},
      {"measurement": "relative viability", "setting": "Dabrafenib + Decitabine; first compound 0.3 µM", "result": 0.394},
      {"measurement": "relative viability", "setting": "VX-702 + Tozasertib; first compound 0.02 µM", "result": 0.87},
      {"measurement": "relative viability", "setting": "VX-702 + Tozasertib; first compound 0.2 µM", "result": 0.494},
      {"measurement": "relative viability", "setting": "VX-702 + Tozasertib; first compound 0.6325 µM", "result": 0.621},
      {"measurement": "relative viability", "setting": "VX-702 + Tozasertib; first compound 2 µM", "result": 0.636},
      {"measurement": "relative viability", "setting": "VX-702 + Decitabine; first compound 0.02 µM", "result": 0.47},
      {"measurement": "relative viability", "setting": "VX-702 + Decitabine; first compound 0.2 µM", "result": 0.375},
      {"measurement": "relative viability", "setting": "VX-702 + Decitabine; first compound 0.6325 µM", "result": 0.393},
      {"measurement": "relative viability", "setting": "VX-702 + Decitabine; first compound 2 µM", "result": 0.425}
    ]}
  ]
}
